From patent publication US12496301B2, “Use of androgen receptor degrader for the treatment of spinal and bulbar muscular atrophy” (Arvinas Operations, Inc., priority 2023, dated 2025)
“Also recorded” adds a separate entry of the source.

Experiments:
endogenous AR = target: T1, endogenous AR (Mus musculus, UniProt P19091); assay: In vivo AR degradation in LABC muscle of C57Bl/6 mice (mouse AR ELISA), PK/PD
T1 construct: from tissue; host or cells: mouse LABC muscle (C57Bl/6 and hAR100Q mice); quadriceps (hAR100Q mice)
T1 sequence (P19091 1-899): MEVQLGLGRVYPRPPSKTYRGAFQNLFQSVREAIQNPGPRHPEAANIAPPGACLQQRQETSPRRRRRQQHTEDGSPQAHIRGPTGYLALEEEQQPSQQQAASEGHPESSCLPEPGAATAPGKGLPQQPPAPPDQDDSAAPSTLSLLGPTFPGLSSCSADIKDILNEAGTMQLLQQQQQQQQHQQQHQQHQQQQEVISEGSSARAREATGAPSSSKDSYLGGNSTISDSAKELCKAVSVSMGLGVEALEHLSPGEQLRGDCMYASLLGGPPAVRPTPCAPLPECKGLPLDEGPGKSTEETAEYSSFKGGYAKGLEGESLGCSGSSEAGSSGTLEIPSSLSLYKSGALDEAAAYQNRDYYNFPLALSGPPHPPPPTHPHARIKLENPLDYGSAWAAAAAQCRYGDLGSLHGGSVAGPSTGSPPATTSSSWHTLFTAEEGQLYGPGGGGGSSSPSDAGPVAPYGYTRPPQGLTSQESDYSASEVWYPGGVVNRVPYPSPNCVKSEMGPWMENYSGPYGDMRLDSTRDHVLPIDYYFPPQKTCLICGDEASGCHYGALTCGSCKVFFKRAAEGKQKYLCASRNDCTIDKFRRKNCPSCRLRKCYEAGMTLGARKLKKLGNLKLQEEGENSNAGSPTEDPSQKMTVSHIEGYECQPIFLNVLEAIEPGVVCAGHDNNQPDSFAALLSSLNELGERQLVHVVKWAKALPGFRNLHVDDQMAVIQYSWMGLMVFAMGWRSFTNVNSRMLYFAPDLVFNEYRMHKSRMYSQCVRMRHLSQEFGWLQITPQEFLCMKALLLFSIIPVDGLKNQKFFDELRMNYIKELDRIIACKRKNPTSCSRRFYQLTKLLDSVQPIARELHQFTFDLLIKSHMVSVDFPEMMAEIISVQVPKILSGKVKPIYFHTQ
Description: Using six- to eight-week-old C57Bl/6 male mice, chow and water were provided ad libitum. Compounds were administered by oral gavage at the indicated dose using 5% dimethyl sulfoxide (DMSO), 95% (2% Tween 80, PEG 400) as the vehicle. Mice were euthanized by using Isoflurane inhalation (2-4% induction) followed by decapitation 24 hours post dose unless otherwise indicated. The levator ani/bulbocavernosus (LABC) muscle was dissected and immediately snap frozen and stored at −80° C. prior to analysis. Compound exposure was measured in serum and muscle lysates.
Anti-androgen receptor rabbit polyclonal antibody, clone PG-21 (Millipore; 06-680), was diluted in BupH carbonate-bicarbonate buffer (Thermo; 28382) to a concentration of 2 μg/mL and coated onto 96-well ELISA plates by incubating 50 μL per well overnight at 37° C. Plates were washed 4× with tris-buffered saline (TBS) buffer containing 0.1% Tween-20 (TBS-0.1% T) and blocked with 3% bovine serum albumin in TBS-T for 3 hours at room temperature (200 μL per well). AR peptide standard (Creative Biomart; Cat. No. AR-9788H) and samples were diluted in 1% bovine serum albumin (BSA)/TBS-0.05% T. After the blocking period, plates were washed as above, and 50 μL of standard and samples were added. Plates were incubated overnight at 4° C. with shaking. Following the incubation period, the plates were allowed to acclimate to room temperature with shaking for 1 hour. The detection antibody (anti-AR antibody, clone EPR1535 (abcam; ab194196)), conjugated to horse radish peroxidase (HRP), was diluted 1:15000 in 1% BSA/TBS-0.05% T and co-incubated with the samples by adding 50 μL to each well and shaking for 2 hours at room temperature. Plates were washed as above. Chemiluminescent substrate (ELISABright; Advansta; K-16025) was added to the plates (100 μL per well).
In vivo degradation of endogenous AR was evaluated for 95 compounds in murine levator ani/bulbocavernosus (LABC) muscle using a 30 mg/kg PO dose (see Example 1). The observed AR degradation for these 95 compounds ranged from 0-85% of AR in mouse LABC.

polyQ-AR = assay: Global proteomics in SBMA hiPSC-myotubes: polyQ-AR and specificity; format: cell-based, human
Text: (FIG. 12A). […] (FIG. 12C).

[1] = Free fraction in mouse plasma; format: in vitro ADME

CC(C)N(CC1CCN(c2ncc(C(=O)N[C@H]3C(C)(C)[C@H](Oc4ccc(C#N)c(Cl)c4)C3(C)C)cn2)CC1)[C@H]1C[C@H](Oc2ccc3c(c2)C(=O)N(C2CCC(=O)NC2=O)C3=O)C1 (stereo partly drawn) [Compound A, N-((1r,3r)-3-(3-chloro-4-cyanophenoxy)-2,2,4,4-tetramethylcyclobutyl)-2-(4-((((1r,3r)-3-((2-(2,6-dioxopiperidin-3-yl)-1,3-dioxoisoindolin-5-yl)oxy)cyclobutyl)(isopropyl)amino)methyl)piperidin-1-yl)pyrimidine-5-carboxamide]
time for AR levels in LABC muscle to return to normal post administration (endogenous AR; 30 mg/kg, once per day (QD) for 3 days): about 3 days
time for AR to return to basal levels in LABC muscle (endogenous AR; mouse LABC muscle): 48 to 72 h
dose that achieves AR degradation of ~50% (endogenous AR; mouse muscle): About 10 mg/kg
polyQ-AR degradation compared to control, global proteomics (polyQ-AR; 12 nM, SBMA hiPSC-myotubes): induces degradation of polyQ-AR; also recorded: degrades polyQ-AR
neosubstrates (off-target substrates) identified (polyQ-AR; out of ~7,600 proteins detected in myotubes): single neosubtrate; also recorded: only one neosubstrate
fraction unbound [1]: 0.0044
